From EP4599829A1, “USE OF IMIDAZOLIDINYL VANILLIC ACID ETHER DERIVATIVE IN TREATMENT OF DISEASE ACCOMPANIED BY FIBROSIS” (Hefei Institute of Pharmaceutical Industry Co., Ltd., priority 2022, dated 2024)
Marks after values point to notes of the source that are not given here.

What was measured:
Format in all cases: in vivo, Female BALB/c mice
[1] = system: BLM-Induced Systemic Sclerosis Mouse Model; experiment: Comparison with other antiplatelet drugs: skin thickening in BLM-induced systemic sclerosis mouse model; details: 0.10 mmol/kg once a day for 28 days; for Skin thickness: oral (gavage) (Sodium Ozagrel: intravenous injection), mean ± SE, n = 8, blank 0.22±0.05, model 0.87±0.15
From the text: (§1) Female BALB/c mice, weighing 18-22 g, were purchased from Beijing Weitonglihua Experimental Animal Technology Co., Ltd. and housed in an SPF environment for 1 week (with free access to drinking water during the feeding period). They were then randomly divided into 9 groups, with 10 mice in each group, namely, blank group, model group, sodium ozagrel group, dipyridamole group, clopidogrel group, cilostazol group, ticagrelor group, aspirin group, and HY-2 group. The back of mice of each group was shaved in an area of 1 cm*1 cm. Except for the blank group which was subcutaneously injected with normal saline, all other groups were subcutaneously injected with BLM 100 µL (0.5 mg/mL) for 28 consecutive days (the injection area was injected at the four corners of the shaved area for the first 4 times, and the center of the shaved area for the 5th time, and this cycle was repeated. The skin changes at the subcutaneous injection site and the weight changes of the mice were observed every week). Each treatment group was respectively given sodium ozagrel, dipyridamole, clopidogrel, cilostazol, ticagrelor, aspirin, and HY-2 30 minutes after the injection of BLM, once a day for 28 consecutive days (the dosage and administration method are shown in Table 1). Table 1 Dosage and administration method
After the last administration, the animals were sacrificed, and the back skin tissue was taken, fixed with 4% paraformaldehyde, dehydrated, paraffin-embedded and sliced. The tissue sections were stained with HE, and the pathological morphological changes of the skin tissue were examined with a microscope and the skin thickening was measured.
The experimental data were processed using GraphPad Prism 7, and the experimental groups were compared using the student t test.

[2] = system: thromboxane B2 (TXB2); experiment: Serum TXB2 level (ELISA) in BLM-induced systemic sclerosis mouse model; details: 0.10 mmol/kg once a day for 28 days; for TXB2: serum, oral (gavage) (Sodium Ozagrel: intravenous injection), mean ± SE, n = 8, blank 74.19±14.76, model 261.91±10.96
From the text: as §1
(§2) Mouse TXB2 ELISA kit was purchased from Shanghai Jianglai Biological, batch number: 20220715, antibody types: purified mouse TXB2 capture antibody and horseradish peroxidase (HRP)-labeled detection antibody; mouse TGF-β1 ELISA kit was purchased from Shanghai Jianglai Biological, batch number: 20220806, antibody types: purified mouse TGF-β1 capture antibody and horseradish peroxidase (HRP)-labeled detection antibody.
(§3) The kit uses a double-antibody one-step sandwich enzyme-linked immunosorbent assay (ELISA). Serum specimens, standards, and horseradish peroxidase (HRP)-labeled detection antibodies are added sequentially to the coated microwells pre-coated with mouse analyte capture antibodies, followed by incubation and thorough washing. The substrate TMB (3,3',5,5'-tetramethylbenzidine) is used for color development. TMB is converted to be blue under the catalysis of peroxidase (HRP) and then converted to be finally yellow under the action of acid. The depth of color is positively correlated with the content of the analyte in the serum sample. The absorbance (OD value) was measured at a wavelength of 450 nm using a microplate reader to calculate the sample concentration.
(§4) After the last administration, the animals were sacrificed and serum samples were collected. Standard wells were set on the enzyme-labeled coated plate, standard solutions of different concentrations were prepared according to the instructions, and 50uL of standard solutions of different concentrations were added to each standard well. Blank wells and test sample wells were set on the enzyme-labeled coated plate, 40uL of sample diluent was first added to the test sample well, and 20uL of test serum sample was then added. 100uL of enzyme-labeled reagent was added to each well, except the blank well. The plate was sealed with a sealing film and incubated at 37°C for 60 minutes. The sealing film was removed, and after discarding the liquid and spinning dry, each well was filled with washing solution, and stood for 30 seconds, then discarding the washing solution, repeating 5 times and spinning dry. 50uL of color developer A (containing H2O2) was first added into each well, and then 50uL of color developer B (containing substrate TMB) was added, gently shaking to mix, and color developing at 37°C in the dark for 15 minutes. 50uL of stop solution was added to each well to stop the reaction (the blue color immediately turns to yellow). The microplate reader was adjusted to zero with the blank well, and the absorbance OD value of each well was measured in sequence at a wavelength of 450nm. The measurement should be carried out within 15 minutes after adding the stop solution.

[3] = system: transforming growth factor β1 (TGF-β1); experiment: Serum TGF-β1 level (ELISA) in BLM-induced systemic sclerosis mouse model; details: 0.10 mmol/kg once a day for 28 days; for TGF-β1: serum, oral (gavage) (Sodium Ozagrel: intravenous injection), mean ± SE, n = 8, blank 379.76±120.63, model 913.10±64.73
From the text: as §1, §2, §3, §4

[4] = system: BLM-Induced Systemic Sclerosis Mouse Model; experiment: Skin thickening (HE staining) in BLM-induced systemic sclerosis mouse model, dose groups; details: compared with the model group
Procedure: Female BALB/c mice, weighing 18-22 g, were purchased from Beijing Weitong Lihua Experimental Animal Technology Co., Ltd. and housed in an SPF environment for 1 week (with free access to drinking water during the feeding period). They were then randomly divided into 5 groups, 8 mice in each group, namely, blank group, model group, 15 mg/kg, 30 mg/kg, and 60 mg/kg dosage groups of sodium 4-(2-(1H-imidazol-1-yl)ethoxy)-3-methoxybenzoate (HY-2). The back of each group of mice was shaved in an area of 1 cm*1 cm. Except for the blank group which was subcutaneously injected with normal saline, all other groups were injected with BLM 100 µL (0.5 mg/mL) for 28 consecutive days (the injection area was the four corners of the shaved area for the first 4 injections, and the center of the shaved area for the 5th injection, and this cycle was repeated. The skin changes at the subcutaneous injection site and the weight changes of the mice were observed every week). After the injection of BLM, the treatment group was orally (gavaged) given the corresponding dose of sodium 4-(2-(1H-imidazole-1-yl)ethoxy)-3-methoxybenzoate, once a day, for 28 consecutive days.
After the last administration, the animals were sacrificed, and appropriate skin tissues were taken for HE staining and measurement of skin thickening.

[5] = system: BLM-Induced Systemic Sclerosis Mouse Model; experiment: Lung histopathology (HE staining) in BLM-induced systemic sclerosis mouse model; details: each dose group (15, 30, 60 mg/kg) oral (gavage) once a day for 28 days, compared with the model group
Procedure: (§5) Female BALB/c mice, weighing 18-22 g, were purchased from Beijing Weitonglihua Experimental Animal Technology Co., Ltd. and housed in an SPF environment for 1 week (with free access to water during the feeding period). They were then randomly divided into 5 groups, with 8 mice in each group, namely, blank group, model group, HY-2 15 mg/kg, 30 mg/kg, and 60 mg/kg dose groups. The back of each group of mice was shaved in an area of 1 cm*1 cm. Except for the blank group which was subcutaneously injected with normal saline, all other groups were injected with BLM 100 µL (0.5 mg/mL) for 28 consecutive days (the injection area was the four corners of the shaved area for the first 4 injections, and the center of the shaved area for the 5th injection, and this cycle was repeated. The skin changes at the subcutaneous injection site and the weight changes of the mice were observed every week). After the injection of BLM, each dose treatment group was orally (gavage) given the corresponding dose of HY-2 once a day for 28 consecutive days.
After the last administration, the animals were sacrificed, and appropriate lung tissues were taken for HE staining and slide preparation to examine the lung tissue structure and inflammatory cell infiltration.

[6] = system: BLM-Induced Systemic Sclerosis Mouse Model; experiment: Collagen deposition (Masson staining) in skin and lung tissues of BLM-induced systemic sclerosis mouse model; details: each dose group (15, 30, 60 mg/kg) oral (gavage) once a day for 28 days, compared with the model group, P<0.01
Procedure: as §5, with “administered” for “given”
After the last administration, the animals were sacrificed, and appropriate skin and lung tissues were taken for Masson staining and slide preparation to examine the collagen deposition in the skin and lung tissues. The percentage of collagen deposition was quantified using Image-Pro® Plus software.

| Structure (SMILES) | Skin thickness [1] | TXB2 [2] | TGF-β1 [3] | skin thickening ([4]; 30 mg/kg oral (gavage) once a day for 28 days, P<0.05) | skin thickening ([4]; 60 mg/kg oral (gavage) once a day for 28 days, P<0.01) | lung tissue structure and inflammatory cell infiltration [5] | collagen deposition in the lung tissue [6] | collagen deposition in the skin [6] | skin thickness compared with the model group (in words) ([1]; P<0.01) | effect on TXB2 in serum (in words) ([2]; vs model group) | effect on TGF-β1 in serum (in words) ([3]; vs model group) |
| --- | --- | --- | --- | --- | --- | --- | --- | --- | --- | --- | --- |
| O=C1CCc2cc(OCCCCc3nnnn3C3CCCCC3)ccc2N1 [Cilostazol, cilostazol] | 0.74±0.11^a mm | 259.32±7.13^a pg/mL | 838.27 ± 65.93 pg/mL |  |  |  |  |  |  |  |  |
| CCCSc1nc(N[C@@H]2C[C@H]2c2ccc(F)c(F)c2)c2nnn([C@@H]3C[C@H](OCCO)[C@@H](O)[C@H]3O)c2n1 [Ticagrelor, ticagrelor] | 0.74±0.07^aa mm | 197.76 ± 42.08 pg/mL | 847.62±43.73^a pg/mL |  |  |  |  |  |  |  |  |
| CC(=O)Oc1ccccc1C(=O)O [Aspirin, aspirin] | 0.80±0.09^aa mm | 239.57 ± 13.60 pg/mL | 827.68 ± 77.88 pg/mL |  |  |  |  |  |  |  |  |
| OCCN(CCO)c1nc(N2CCCCC2)c2nc(N(CCO)CCO)nc(N3CCCCC3)c2n1 [Dipyridamole, dipyridamole] | 0.74 ± 0.12^a mm | 248.84 ± 38.88 pg/mL | 867.56 ± 113.73 pg/mL |  |  |  |  |  |  |  |  |
| COc1cc(C(=O)[O-])ccc1OCCn1ccnc1.[Na+] [HY-2, sodium 4-(2-(1H-imidazol-1-yl)ethoxy)-3-methoxybenzoate] | 0.59±0.06 mm | 215.00 ± 38.92 pg/mL | 783.04 ± 53.77 pg/mL | significantly inhibited | significantly inhibited | regular and infiltrated by less inflammatory cells | significantly reduced | significantly reduced | significantly decreased | significantly reduce | significantly reduce |
| COC(=O)[C@H](c1ccccc1Cl)N1CCc2sccc2C1 [Clopidogrel, clopidogrel] | 0.81±0.10^aa mm | 208.46 ± 42.87 pg/mL | 822.62 ± 76.60 pg/mL |  |  |  |  |  |  |  |  |
| O=C(O)/C=C/c1ccc(Cn2ccnc2)cc1 [Sodium Ozagrel, sodium ozagrel] | 0.82±0.16^aa mm | 196.54 ± 45.30 pg/mL | 884.74±33.45^aa pg/mL |  |  |  |  |  |  |  |  |
